According to patent US11213506B2, “Combination therapy for the treatment or prevention of tumours” (QBIOTICS PTY LTD, priority 2017, dated 2022):

How the values were obtained:
[1] = system: mouse stroma in SK-MEL-28 human melanoma xenografts; assay: Gene expression changes in mouse tumour stroma (Illumina BeadChip); format: in vivo, BALB/c Foxn1nu mouse; conditions: 30 μg Compound 1 injected into the tumour
Experimental: The SK-MEL-28 human melanoma cell line was injected subcutaneously (s.c) into 2 sites on the flanks of each BALB/c Foxn1nu mouse (2 million cells/site) and allowed to grow to approximately 7 mm diameter. Each tumour was then injected with 50 μl of 20% propylene glycol containing 30 μg Compound 1 or with 50 μl of 20% propylene glycol. At different times after injection a mouse was euthanased and the tumours harvested, the skin covering removed, and the intact tumours stored at −80° C.
RNA was extracted from 30 mg of frozen tumour using the Qiagen RNeasy Plus Mini Kit, according to manufacturer's instructions, then quantitated with a NanoDrop instrument and integrity confirmed on denaturing agarose gels bearing a 1 kb DNA marker and stained with ethidium bromide.
Approximately 500 ng of total unlabelled RNA was adjusted to a final volume of 11 μl with nuclease-free water. The RNA was incubated with 9 μl of the reverse transcriptase master mix (1 μl of T7 Oligo (dT) Primer, 2 μl of 10× first strand buffer, 4 μl of dNTP mix, 1 μl of RNase inhibitor and 1 μl of ArrayScript) at 42° C. for 2 h. This was followed by the second strand cDNA synthesis step which involved a further incubation at 16° C. for 2 hr with 80 μl of the second strand master mix (63 μL nuclease-free water, 10 μl 10× second strand buffer, 4 μl dNTP mix, 2 μl DNA polymerase and 1 μl RNase H). The cDNA was purified by filtering through a cDNA Filter Cartridge with 250 μl of cDNA binding buffer and washing with 500 μl of the wash buffer provided in the kit. Purified cDNA was eluted with 20 μl of 55° C. nuclease-free water. Each cDNA sample was incubated with 7.5 μl of the IVT master mix (2.5 μl of T7 10× reaction buffer, 2.5 μl of T7 enzyme mix and 2.5 μl biotin-NTP mix) at 37° C. for 16 h. The reaction was stopped with the addition of 75 μl of nuclease-free water to each cRNA sample. The biotinylated, amplified RNA was purified by filtering the cRNA samples through cRNA Filter Cartridges with 350 μL of cRNA binding buffer and 250 μl of 100% ethanol mixed together prior to loading onto the filters. The cRNA filter cartridges with attached RNA were then washed with 650 μl of wash buffer before eluting purified cRNA with 200 μl of 55° C. nuclease-free water.
The cRNA samples were heated at 65° C. for 5 min and collected by pulse centrifugation. After heating at 65° C. for 5 min, approximately 750 ng of the cRNA sample was aliquoted into separate tubes to which were added ˜5 μl of RNase-free water and 10 μl of Hyb Mix. […]
BeadChips were read by the iScan System, and transferred via GenomeStudio into GeneSpring GX v12.5 (Agilent Technologies, Santa Clara, Calif., USA). […] The entities were filtered based on the detection score calculated by GenomeStudio where p≤0.05 was considered significant.

[2] = system: CD11c+ BMDCs with B16-OVA cells; assay: BMDC uptake of epoxytigliane treated B16-OVA cells; format: cell-based, C57Bl/6 mice
Experimental: The tibias and […] from four 7-8 week old C57Bl/6 mice were first surgically removed under sterile conditions. The marrow was flushed from the bone cavity with 10 ml of ice cold R10 media (using a 27G needle/syringe into a 50 ml polypropylene tube). Cells were pelleted at 1,500 rpm for 5 mins and washed ×2 with ice cold R10 media. After resuspension of the pellet into 10 ml of ice cold R10 medium, cells were counted using an improved haemocytometer and plated at a density of 2×10^6 cells per plate (petri dish) in 10 ml of R10 supplemented with 20 ng/ml murine GM-CSF. All plates were incubated at 37° C., 5% CO2 and at day 3 an additional 10 ml R10 with 20 ng/ml GM-CSF was added. Cells were again fed at day 6 and used for downstream assays on day 7.
Prior to co-incubation with BMDCs, B16-OVA cells were trypsinised, centrifuged at 1,200 rpm for 4 mins to pellet cells and washed ×2 with complete medium. Cells were then stained with 2 μM Cell Tracker Green in complete medium for 45 mins, after which they were pelleted and washed ×2 as above. Labelled B16-OVA cells were subsequently treated with Compounds 1, 2, 3 and 4 at two concentrations (500 or 300 μM) in media at a density of 1×10^6 cells/ml for 30 and 60 mins, after which cells were pelleted via centrifugation, supernatant removed via aspiration and the cell pellet washed ×1 with complete media. After the wash, the treated cells were resuspended in R10 media, inserted into the wells of a 6-well plate (Corning, #3471. Ultra low attachment surface) and BMDCs added. Co-cultures were incubated for 4 h after which cell suspensions were transferred to a microfuge tube and centrifuged at 1,500 rpm for 5 mins. Pellets were resuspended in 100 μl FACs buffer containing anti-CD11c-APC and incubated for 10 mins at 4° C. Cells were again pelleted, washed ×1 with FACs buffer and then fixed using PBS, 1% formaldehyde for 10 mins. After centrifugation and removal of the supernatant, cells were resuspended in 500 μl FACs buffer in preparation for flow cytometry.
Samples were first gated by FSC-H v FSC-A, then SSC-H v SS-A to identify single cells. The proportion of CD11c^+ cells (Ex: 640 nm, Em: 670/14) with CMFDAmid (Ex: 488 nm, Em: 530/30) were then determined for treated and untreated cells as a percentage of all CD11c^+ cells.

C/C=C(\C)C(=O)O[C@@H]1[C@@H](C)[C@@]2(O)[C@H]([C@@H]3C(C)(C)[C@]13OC(=O)[C@@H](C)CC)[C@@H]1O[C@]1(CO)[C@@H](O)[C@]1(O)C(=O)C(C)=C[C@H]12 [Compound 1, 12-tigloyl-13-(2-methylbutanoyl)-6,7-epoxy-4,5,9,12,13,20-hexahydroxy-1-tiglien-3-one]
Cxcl1 expression at the tumour site [1]: heavily upregulated
expression of host cytokines/chemokines important for recruitment/activation of immune cells at the tumour site [1]: upregulated
host gene expression changes associated with a Th-1/M-like response: IFN-γ, TNF, IL-δ and IL-1β [1]: induction
TGF beta signalling (pathway analysis of gene expression) ([1]; t=8 h): downregulation
dependence of antigen uptake on concentration and treatment time ([2]; 500 μM compared to the use of 300 μM): antigen uptake occurs to a greater extent after a shorter treatment time
uptake of dying cancer cell fragments by CD11c+ dendritic cells/macrophages (BMDCs) ([2]; B16-OVA treated at 500 or 300 μM for 30 and 60 mins, 4 h co-culture): promotes the uptake
